The molecules below were run against NP (Influenza A virus, UniProt P15682) (assay: biochemical).
Type: binding

Chain of NP (P15682 whole entry): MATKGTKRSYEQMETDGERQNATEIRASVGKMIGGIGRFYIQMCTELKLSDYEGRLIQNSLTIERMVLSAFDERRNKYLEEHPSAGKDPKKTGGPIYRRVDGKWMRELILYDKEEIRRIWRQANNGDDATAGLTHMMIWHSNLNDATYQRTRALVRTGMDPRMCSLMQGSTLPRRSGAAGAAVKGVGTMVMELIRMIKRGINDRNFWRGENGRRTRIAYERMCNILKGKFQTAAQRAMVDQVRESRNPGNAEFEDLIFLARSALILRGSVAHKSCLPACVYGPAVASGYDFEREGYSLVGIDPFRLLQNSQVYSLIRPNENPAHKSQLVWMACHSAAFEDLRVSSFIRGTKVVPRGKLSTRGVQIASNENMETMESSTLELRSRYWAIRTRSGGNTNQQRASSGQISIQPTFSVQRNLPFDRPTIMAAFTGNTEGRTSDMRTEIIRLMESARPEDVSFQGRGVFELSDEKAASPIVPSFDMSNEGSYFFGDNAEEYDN

SMILES | Kd | binding affinity for NP relative to nucleozin
O=C(O)CCCC(=O)Nc1nc2n(n1)[C@H](c1ccccc1)C=C(c1ccc(Cl)cc1)N2 [Compound 14] | 69.7 µM | higher binding affinity for NP than nucleozin
O=C(O)CCC(=O)N1N=C(c2c(-c3ccccc3)c3cc(Br)ccc3[nH]c2=O)C[C@@H]1c1ccc([N+](=O)[O-])cc1 [Compound 9] | – | higher binding affinity for NP than nucleozin
COc1ccc(C2CC(c3c(-c4ccccc4)c4cc(Cl)ccc4[nH]c3=O)=NN2C(=O)CCC(=O)O)cc1 (centres unmarked) [Compound 8] | 78.5 µM | higher binding affinity for NP than nucleozin
COc1ccc([C@H]2CC(c3c(-c4ccccc4)c4cc(Br)ccc4[nH]c3=O)=NN2C(=O)CCC(=O)O)cc1 [Compound 3] | 210 µM | higher binding affinity for NP than nucleozin
O=C(O)CCC(=O)Nc1nc2n(n1)C(c1ccc(Cl)cc1)C=C(c1ccc(Cl)cc1)N2 (centres unmarked) [Compound 13] | 38.2 µM | higher binding affinity for NP than nucleozin
Cc1ccc([C@@H]2C=C(c3ccc(Cl)cc3)Nc3nc(NC(=O)CCCC(=O)O)nn32)cc1 [Compound 4] | – | higher binding affinity for NP than nucleozin
COc1ccc([C@@H]2C=C(c3ccc(Cl)cc3)Nc3nc(NC(=O)CCCC(=O)O)nn32)cc1 [Compound 12] | – | higher binding affinity for NP than nucleozin
O=C(O)CCC(=O)N1N=C(c2c(O)nc3ccc(Br)cc3c2-c2ccccc2)CC1c1ccco1 (centres unmarked) [Compound 1] | 150 µM | higher binding affinity for NP than nucleozin
Cc1onc(-c2ccccc2)c1C(=O)N1CCN(c2ccc([N+](=O)[O-])cc2Cl)CC1 [nucleozin, reference compound] | 9.73 µM | –
